According to patent US6057450A, “Derivatives of pyroglutaminic acid preparation process and applications” (Totiam, S.L., priority 1994, dated 2000):

Tests used:
[1] = tested on: circulating peripheral blood leukocytes; assay: in vivo leukocyte kinetics / response in asymptomatic rabbits; parameters: species or system New Zealand's albino, giant rabbits
Excerpt: (§1) The pharmacodynamic study to assess the leuko-lymphocyte kinetics has been carried out in New Zealand's albino, giant, female, adult, asymptomatic (healthy) rabbits. The blood samples with EDTA (ethylene-diamino-tetraAcetic acid), non-coagulable, for the periodical weekly controls, have been obtained by aseptic puncture from the marginal vein of the outer ear. The count and the differential cytologic survey of the white series has been routinely performed in a "Coulter" (Coulter Cientifica, S.A., STKs model) differential analyzer, within the two hours following the extraction.
Hereinafter, there is a summary of the most significant results of the preclinical protocols which include different experimental conditions, different BRM-BLAS products and doses which vary in vary of their concentration of the product, frequency and number.
The leuko-lymphocyte mean values of the group run parallelly during the study, in general above the respective basal values before the treatment to which they return in the last two assessments. They reach the higher ones 7, 16 and 20 days after the first, second and third dose, FIG. 12, FIG. 13 and Table VIII (assessments: 3, 8 and 13).
A total number of 225 individual assessments and 45 of the group assessments have been performed, grouped in four evolutive periods moments. The "first" one includes the 40 individual assessments (8 of the group) after the two first doses, days 0 to 43rd; the "second", the 85 (17 of the group) after the third, fourth and fifth doses, days 46th to 147th; the "third", the first 50 (10 of the group) after the sixth, days 153rd to 213th, and the "fourth", the last 50 (10 of the group), days 220th to 282nd, respectively. The assessment of the group prior to the third dose (43rd day), the lymphocyte mean of which has been the lowest during the survey, has been taken as the natural reference baseline for the comparative analysis of punctual and grouped data.
This trail is subsequent to the protocol previously described and corresponds to the "fifth" moment of the global study, FIG. 14 and FIG. 15.
After the subcutaneous administration of a dose of 30 u/Kg (2.1 mcg/Kg) of the BRM-BLAS 278 (Cl) compounds 137 days after the sixth dose of the BRM-BLAS 320 (Ac) compounds, in the presence of high figures of the lymphocyte mean of the group, at the "fourth" moment, such figures were specifically exceeded by the 4th and 5th punctual weekly assessments of the "fifth" moment, 24th (184%) and 31st (180%) days, respectively, FIG. 14. Globally, 28% of the assessment exceed basal values by one or two standard deviations; 57% in three, and the difference is statistically in all of them. The resulting mean of the data gathered for the "fifth" moment with a 158% of the basal values, exceed those of the four previous moments, and the difference is statistically significant compared with those of the "first", "second" and "third", and exceeds that of the "first" in more than one standard deviation, FIG. 15 and (Table IX). […]

[2] = tested on: Swiss mice; assay: single-dose intraperitoneal toxicity in mice; conditions: i.p. single dose; 236 (Cl) 800 mcg/Kg, 278 (Ac) 4.2 mg/Kg, 320 (Ac) 4.8 mg/Kg, respectively
[3] = tested on: circulating peripheral blood lymphocytes; assay: in vivo lymphocyte kinetics / response in asymptomatic rabbits; parameters: species or system New Zealand's albino, giant rabbits
Excerpt: as §1
Hereinafter, there is a summary of the most significant results of the preclinical protocols which include different experimental conditions, different BRM-BLAS products and doses which vary in vary of their concentration of the product, frequency and number. […]
This study comprises three concatenated experimental situations. The first one is focused on the vicissitudes of the leuko-lymphocyte kinetics occurred during a pause, "first" moment, that takes place months after several doses, mainly of BRM-BLAS 236 (Cl) compounds and includes 30 individual assessments (6 of the group) days 0 to 39. The second "second" moment, is centered on the successive changes occurred after the administration on the 39th day of an intravenous dose of 8 u/Kg (0.6 mcg/Kg) of the BRM-BLAS 278 (Ac) compounds and includes a total of 25 individual assessments (5 of the group), days 43rd to 68th. The third one, moments "third" to "seventh", analyzes the changes induced after the intravenous administration on the 68th day of 22 u/Kg (1.8 mcg/Kg) of BRM-BLAS 320 (Ac) compounds and includes […] (6 of the group×5 times), days 75th to 287th of the study. The assessment prior to the last dose, the lymphocyte average of which is the lowest of the group during the study, has been selected as the common baseline (100%) for reference of the comparative analysis between the assessments.

[4] = tested on: human lymphocytes; assay: in vitro non-specific lymphoproliferative response (RLP-I) to PHA, human lymphocyte cultures; assay type: cell-based; conditions: for RLP-I B < A, number of witness models / RLP-I B < A, percentage of witness models / RLP-I B > A, number of witness models / RLP-I B > A, percentage of witness models: Table V, PHA + BRM-BLAS (B) versus PHA (A); for number of cases with RLP-I B > A in 33-50% of the witness models / number of cases with RLP-I B > A in 67% of the witness models / number of cases with RLP-I B > A in 100% of the witness models / percentage of cases with RLP-I B > A in 33-50% of the witness models / percentage of cases with RLP-I B > A in 67% of the witness models / percentage of cases with RLP-I B > A in 100% of the witness models: Table VI, intragroup individual analysis
Method: The "in vitro" lymphocyte response has been assessed in samples of circulating and peripheral venous blood from asymptomatic blood donor adults of both sexes. In general, the lymphocyte cultures include in each case six experimental models called witnesses, and incorporate progressive doses between 0.25-6.0 units (20-500 ng) of the BRM-BLAS compounds and PHA. The RLP-I of each one has been morphologically determined and is expressed in absolute values of lymphoblasts/10,000.
Systematically, in all the cases it has been tabulated the RLP-I to the PHA, basal, of the PHA models; to the PHA+BRM-BLAS, of the "witness" models and the maximum individual response of the witness models (RMC), in each case.

[5] = tested on: patients with cancer; conditions: patients with favourable prognosis factors; cited from earlier work
[6] = progressive i.v. doses, "second" moment
[7] = progressive i.v. doses, grouped results
[8] = single i.v. high dose 22 u/Kg (1.8 mcg/Kg)
[9] = three i.v. doses 5 U/Kg (300 ng/Kg) every 21 days, assessment 8, 37th day
[10] = three i.v. doses 5 U/Kg every 21 days

CC(=O)NC1(C[n+]2ccccc2)CC(C(=O)O)N(C(C)=O)C1=O (stereo not shown) [BRM-BLAS 320 (Ac), 1-acetyl-4-acetylamino-4-(1-pyridiniomethyl) pyroglutamic acid acetate]
animals with leukocyte mean at "fourth" exceeding "first" moment by two or three standard deviations ([1]; progressive i.v. doses): 40%
assessments with leukocyte mean exceeding basal by one standard deviation ([1]; progressive i.v. doses): 4.4%
leukocyte punctual assessments versus basal ([1]; progressive i.v. doses): the difference is never became statistically significant
leukocyte mean versus basal, 227th day ([1]; progressive i.v. doses, 227th day): 129%
leukocyte mean versus basal, 241st day ([1]; progressive i.v. doses, 241st day): 136%
tolerance / toxicity, single dose [2]: perfectly tolerated without evidences of toxicity
animals with individual lymphocyte mean "fourth" versus "first" moment higher by three standard deviations ([3]; progressive i.v. doses): 60%
animals with individual lymphocyte mean "fourth" versus "first" moment higher by two standard deviations ([3]; progressive i.v. doses): 40%
lymphocyte response ([3]; progressive i.v. doses 5-30 units/Kg (0.4-2.4 mcg/Kg)): selective and significant increase in the number of lymphocytes that starts after the third dose and reaches its maximum level after the sixth
assessments with lymphocyte mean exceeding one standard deviation, "second" moment [3, 6]: 41%
assessments with statistically significant lymphocyte difference, "second" moment [3, 6]: 43%
highest average lymphocyte value versus basal ([3]; progressive i.v. doses, day 241st of the study, "fourth" moment): 178%
assessments exceeding mean lymphocyte basal values by more than one, two or three standard deviations, "third" moment ([3]; progressive i.v. doses, days 153rd to 213th): 80%
assessments exceeding mean lymphocyte basal values by more than one, two or three standard deviations, "fourth" moment ([3]; progressive i.v. doses, days 220th to 282nd): 100%
grouped lymphocyte mean versus baseline, "first" period [3, 7]: 110%
grouped lymphocyte mean versus baseline, "fourth" period [3, 7]: 152%
grouped lymphocyte mean versus baseline, "second" period [3, 7]: 120%
grouped lymphocyte mean versus baseline, "third" period [3, 7]: 131%
cases with individual lymphocyte mean at "seventh" exceeding "first" moment by one, two or three standard deviations ([3]; single i.v. high dose 22 u/Kg): 80%
lymphocyte mean versus baseline from the 53rd day [3, 8]: surpasses the baseline by two or three standard deviations from the 53rd day
onset of lymphocyte increase after the dose [3, 8]: twenty days after the high dose
highest lymphocyte mean versus basal ([3]; single i.v. high dose 22 u/Kg (1.8 mcg/Kg), 88th and 202nd days after dose): 212%
duration of statistically significant lymphocyte increase ([3]; single i.v. high dose 22 u/Kg (1.8 mcg/Kg), from 53rd day): statistically significant uninterruptedly, until the 213th day
selectivity for lymphocytes versus granulocytes and monocytes ([3]; single i.v. high dose 22 u/Kg, FIG. 18 and FIG. 19): sustained and selective immunomodulating activity or effect of the BRM-BLAS 320 (Ac) compounds on subpopulations of lymphocytes without detriment to the number of granulocytes and monocytes
RLP-I B < A, number of witness models [4]: 17 Num.
RLP-I B < A, percentage of witness models [4]: 21%
RLP-I B > A, number of witness models [4]: 65 Num.
RLP-I B > A, percentage of witness models [4]: 70%
number of cases with RLP-I B > A in 33-50% of the witness models [4]: 14 Num.
number of cases with RLP-I B > A in 67% of the witness models [4]: 9 Num.
number of cases with RLP-I B > A in 100% of the witness models [4]: 5 Num.
percentage of cases with RLP-I B > A in 33-50% of the witness models [4]: 100%
percentage of cases with RLP-I B > A in 67% of the witness models [4]: 64%
percentage of cases with RLP-I B > A in 100% of the witness models [4]: 36%

NC1(C[n+]2ccccc2)CC(C(=O)O)NC1=O (stereo not shown) [BRM-BLAS 236 (Cl), 4-ammonium-4-(1-pyridiniomethyl) pyroglutamic acid dichloride]
highest leukocyte mean value versus basal [1, 9]: 169%
assessments with leukocyte mean above basal by more than three standard deviations [1, 10]: 5%
assessments with leukocyte mean above basal by more than two standard deviations [1, 10]: 20%
assessments with leukocyte mean above basal over the standard deviation [1, 10]: 55%
assessments with statistically significant difference of leukocytes versus basal [1, 10]: 70%
leukocyte response [1, 10]: increase in the number of leukocytes which affect granulocytes as well as lymphocytes in the same way
time to higher leuko-lymphocyte mean values after first dose ([1]; three i.v. doses 5 U/Kg every 21 days, first dose): 7 days
leuko-lymphocyte mean of "first" period versus "fourth" period and basal ([1]; three i.v. doses 5 U/Kg every 21 days, grouped results): practically by two standard deviations
time to higher leuko-lymphocyte mean values after second dose ([1]; three i.v. doses 5 U/Kg every 21 days, second dose): 16 days
time to higher leuko-lymphocyte mean values after third dose ([1]; three i.v. doses 5 U/Kg every 21 days, third dose): 20 days
tolerance / toxicity, single dose [2]: perfectly tolerated without evidences of toxicity
highest lymphocyte mean value versus basal [3, 9]: 157%
assessments with lymphocyte mean above basal by more than three standard deviations [3, 10]: 10%
assessments with lymphocyte mean above basal by more than two standard deviations [3, 10]: 20%
assessments with lymphocyte mean above basal over the standard deviation [3, 10]: 75%
assessments with statistically significant difference of lymphocytes versus basal [3, 10]: 35%
RLP-I B < A, number of witness models [4]: 20 Num.
RLP-I B < A, percentage of witness models [4]: 30%
RLP-I B > A, number of witness models [4]: 46 Num.
RLP-I B > A, percentage of witness models [4]: 70%
number of cases with RLP-I B > A in 33-50% of the witness models [4]: 11 Num.
number of cases with RLP-I B > A in 67% of the witness models [4]: 9 Num.
number of cases with RLP-I B > A in 100% of the witness models [4]: 2 Num.
percentage of cases with RLP-I B > A in 33-50% of the witness models [4]: 100%
percentage of cases with RLP-I B > A in 67% of the witness models [4]: 82%
percentage of cases with RLP-I B > A in 100% of the witness models [4]: 18%

IFN-α
effect on tumor metastases [5]: can cause the regression of tumor metastases
